Toxic doses and inconclusive results are not listed. How the source made its calls: active means survival T/C of 150% or more; inactive means T/C below 125% in these data.
Tested on: CD2F1 mice, L1210 leukemia ip, survival T/C
Assay: NCI In Vivo Anticancer Drug Screen. Data for tumor model L1210 Leukemia (intraperitoneal) in CD2F1 (CDF1) mice
Conditions: higher = longer survival
In short: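 Transplantable tumor in mice; compound-treated vs vehicle-treated groups. Read-out = treated/control ratio of the measured endpoint.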

[1] = endpoint: mean survival time, dose: 100.0 mg/kg/injection, schedule: Q04DX003 (ip), vehicle: saline with Tween-80
[2] = endpoint: mean survival time, dose: 200.0 mg/kg/injection, schedule: Q04DX003 (ip), vehicle: saline with Tween-80
[3] = endpoint: mean survival time, dose: 400.0 mg/kg/injection, schedule: Q04DX003 (ip), vehicle: saline with Tween-80
[4] = endpoint: mean survival time, dose: 100.0 mg/kg/injection, schedule: Q01DX001 (ip), vehicle: saline with Tween-80
[5] = endpoint: mean survival time, dose: 200.0 mg/kg/injection, schedule: Q01DX001 (ip), vehicle: saline with Tween-80
[6] = endpoint: mean survival time, dose: 50.0 mg/kg/injection, schedule: Q01DX009 (ip), vehicle: saline with Tween-80
[7] = endpoint: mean survival time, dose: 100.0 mg/kg/injection, schedule: Q01DX009 (ip), vehicle: saline with Tween-80
[8] = endpoint: mean survival time, dose: 200.0 mg/kg/injection, schedule: Q01DX009 (ip), vehicle: saline with Tween-80
[9] = endpoint: mean survival time, dose: 100.0 mg/kg/injection, schedule: Q04DX002 (ip), vehicle: saline with Tween-80
[10] = endpoint: mean survival time, dose: 200.0 mg/kg/injection, schedule: Q04DX002 (ip), vehicle: saline with Tween-80
[11] = endpoint: mean survival time, dose: 400.0 mg/kg/injection, schedule: Q01DX001 (ip), vehicle: saline
[12] = endpoint: mean survival time, dose: 400.0 mg/kg/injection, schedule: Q01DX009 (ip), vehicle: saline with Tween-80

Measured: T/C

C[C@@H]1CC[C@]2(C)CC[C@]3(C)C(=CC[C@@H]4[C@@]5(C)CC[C@@H](OC(=O)c6ccc(O)cc6)C(C)(C)[C@@H]5C[C@H](O)[C@]43C)[C@@H]2[C@H]1C(=O)O
inactive: endpoint: median survival time, dose: 0.06 mg/kg/injection, schedule: Q01DX009 (ip), vehicle: saline with Tween-80 103 % of control | endpoint: median survival time, dose: 0.12 mg/kg/injection, schedule: Q01DX009 (ip), vehicle: saline with Tween-80 111 % of control | endpoint: median survival time, dose: 0.25 mg/kg/injection, schedule: Q01DX009 (ip), vehicle: saline with Tween-80 114 % of control | endpoint: median survival time, dose: 0.5 mg/kg/injection, schedule: Q01DX009 (ip), vehicle: saline with Tween-80 123 % of control | endpoint: median survival time, dose: 1.0 mg/kg/injection, schedule: Q01DX009 (ip), vehicle: saline with Tween-80 107 % of control

O=C1C(c2ccccc2)=C(c2ccccc2)C2=CC(c3ccccc3)=C(c3ccccc3)C(c3ccccc3)C12Br (stereo not given)
inactive: [1] 90 % of control | [2] 90 % of control | [3] 89 % of control

O=C(Nc1cccc(O)c1)C1CC1
inactive: [4] 105 % of control | [5] 94 % of control

Cc1ncc(C=O)c(C)c1O
inactive: endpoint: mean survival time, dose: 75.0 mg/kg/injection, schedule: Q01DX001 (ip), vehicle: other 101 % of control

O=c1[nH]cnc2c1ncn2C1OC(CO)C(O)C1O.O=c1[nH]cnc2c1ncn2C1OC(CO)C(O)C1O.[NH2-].[NH2-].[Pt+2] (stereo not given)
inactive: endpoint: mean survival time, dose: 12.5 mg/kg/injection, schedule: Q01DX009 (ip), vehicle: saline with Tween-80 92 % of control | endpoint: mean survival time, dose: 25.0 mg/kg/injection, schedule: Q01DX009 (ip), vehicle: saline with Tween-80 96 % of control | [6] 100 % of control | [7] 92 % of control | [8] 103 % of control

CC(N)C(=O)NC(C(=O)O)C(C)O (stereo not given)
inactive: endpoint: mean survival time, dose: 25.0 mg/kg/injection, schedule: Q01DX009 (ip), vehicle: saline 102 % of control | endpoint: mean survival time, dose: 50.0 mg/kg/injection, schedule: Q01DX009 (ip), vehicle: saline 103 % of control | endpoint: mean survival time, dose: 100.0 mg/kg/injection, schedule: Q01DX009 (ip), vehicle: saline 105 % of control | endpoint: mean survival time, dose: 200.0 mg/kg/injection, schedule: Q01DX009 (ip), vehicle: saline 98 % of control | endpoint: mean survival time, dose: 400.0 mg/kg/injection, schedule: Q01DX009 (ip), vehicle: saline 98 % of control

CC/C(=N/NC(=O)c1ccccc1)c1ccccc1
inactive: endpoint: mean survival time, dose: 100.0 mg/kg/injection, schedule: Q01DX009 (ip), vehicle: Klucel (hydroxypropylcellulose) (HPC) 97 % of control | endpoint: mean survival time, dose: 100.0 mg/kg/injection, schedule: Q04DX003 (ip), vehicle: Klucel (hydroxypropylcellulose) (HPC) 96 % of control | endpoint: mean survival time, dose: 200.0 mg/kg/injection, schedule: Q04DX003 (ip), vehicle: Klucel (hydroxypropylcellulose) (HPC) 94 % of control | endpoint: mean survival time, dose: 400.0 mg/kg/injection, schedule: Q04DX003 (ip), vehicle: Klucel (hydroxypropylcellulose) (HPC) 86 % of control

C[PH+](C)C.C[PH+](C)C.[Au]
inactive: endpoint: median survival time, dose: 0.62 mg/kg/injection, schedule: Q01DX009 (ip), vehicle: saline 101 % of control | endpoint: median survival time, dose: 1.25 mg/kg/injection, schedule: Q01DX009 (ip), vehicle: saline 101 % of control | endpoint: median survival time, dose: 2.5 mg/kg/injection, schedule: Q01DX009 (ip), vehicle: saline 101 % of control | endpoint: median survival time, dose: 5.0 mg/kg/injection, schedule: Q01DX009 (ip), vehicle: saline 101 % of control | endpoint: median survival time, dose: 10.0 mg/kg/injection, schedule: Q01DX009 (ip), vehicle: saline 101 % of control

O=C1C(Cl)=C(c2ccccc2)C(OC2(c3ccccc3)C(Cl)C(=O)C(Cl)C2c2ccccc2)(c2ccccc2)C1Cl (stereo not given)
inactive: [9] 96 % of control | [10] 101 % of control | endpoint: mean survival time, dose: 400.0 mg/kg/injection, schedule: Q04DX002 (ip), vehicle: saline with Tween-80 96 % of control

CC(O)(c1ccccc1)C(CCl)N1CCCCC1 (stereo not given)
inactive: [6] 95 % of control | [7] 97 % of control | [8] 91 % of control

CC(O)(CCCCCCCC(C)(O)c1ccccc1)c1ccccc1 (stereo not given)
inactive: [1] 113 % of control | [2] 103 % of control | [3] 88 % of control

O=C(O)c1cc(-c2ccc(Cl)cc2)nc2c(Cl)cc(Cl)cc12
inactive: endpoint: mean survival time, dose: 100.0 mg/kg/injection, schedule: Q01DX001 (ip), vehicle: saline 101 % of control | endpoint: mean survival time, dose: 200.0 mg/kg/injection, schedule: Q01DX001 (ip), vehicle: saline 97 % of control | [11] 100 % of control

C(OC[C@H]1CC[C@@H](COCC2CO2)O1)C1CO1 (stereo not given in full)
inactive: endpoint: mean survival time, dose: 65.0 mg/kg/injection, schedule: Q01DX009 (ip), vehicle: saline 107 % of control | endpoint: mean survival time, dose: 108.0 mg/kg/injection, schedule: Q01DX009 (ip), vehicle: saline 112 % of control | endpoint: mean survival time, dose: 178.0 mg/kg/injection, schedule: Q01DX001 (ip), vehicle: saline 100 % of control | endpoint: mean survival time, dose: 180.0 mg/kg/injection, schedule: Q01DX009 (ip), vehicle: saline 124 % of control | endpoint: mean survival time, dose: 267.0 mg/kg/injection, schedule: Q01DX001 (ip), vehicle: saline 103 % of control | [11] 109 % of control | endpoint: mean survival time, dose: 600.0 mg/kg/injection, schedule: Q01DX001 (ip), vehicle: saline 121 % of control

CC(=O)C1=C2c3ccccc3C(=O)c3c(Br)cc(S(=O)(=O)O)c(c32)NC1
inactive: [4] 94 % of control | [5] 94 % of control | endpoint: mean survival time, dose: 400.0 mg/kg/injection, schedule: Q01DX001 (ip), vehicle: saline with Tween-80 90 % of control

CNC(=O)OC[C@H]1C2=C(C(=O)C(C)=C(N)C2=O)N2C[C@H]3N[C@H]3[C@@]12OC
inactive: endpoint: mean survival time, dose: 13.75 mg/kg/injection, schedule: Q01DX001 (ip), vehicle: carboxymethylcellulose (CMC) 113 % of control

C1=CC=CN(c2ccccc2)C=C1
inactive: endpoint: mean survival time, dose: 100.0 mg/kg/injection, schedule: Q04DX003 (ip), vehicle: other 106 % of control | endpoint: mean survival time, dose: 200.0 mg/kg/injection, schedule: Q04DX003 (ip), vehicle: other 95 % of control | endpoint: mean survival time, dose: 400.0 mg/kg/injection, schedule: Q04DX003 (ip), vehicle: other 97 % of control

CC(=O)N1C2=CCCC3CCCCC23c2ccccc21 (stereo not given)
inactive: [7] 103 % of control | [1] 96 % of control | [8] 101 % of control | [2] 92 % of control | [12] 98 % of control | [3] 101 % of control

CCSCCN1C(=O)C2C3CCC(O3)C2C1=O (stereo not given)
inactive: [9] 93 % of control | [10] 93 % of control

N#C/C(=C\c1c[nH]c2ccccc12)C(N)=O
inactive: endpoint: mean survival time, dose: 100.0 mg/kg/injection, schedule: Q01DX009 (ip), vehicle: other 93 % of control | [7] 97 % of control | [8] 92 % of control | endpoint: mean survival time, dose: 400.0 mg/kg/injection, schedule: Q01DX009 (ip), vehicle: other 88 % of control | [12] 97 % of control

COc1ccc(COc2ccc([N+](=O)[O-])cc2)cc1OC
inactive: endpoint: mean survival time, dose: 75.0 mg/kg/injection, schedule: Q04DX002 (ip), vehicle: saline with Tween-80 87 % of control | endpoint: mean survival time, dose: 150.0 mg/kg/injection, schedule: Q04DX002 (ip), vehicle: saline with Tween-80 102 % of control

O=C1C2C3C=CC(C3)C2C(=O)N1O (stereo not given)
inactive: endpoint: mean survival time, dose: 50.0 mg/kg/injection, schedule: Q01DX001 (ip), vehicle: carboxymethylcellulose (CMC) 106 % of control | endpoint: mean survival time, dose: 100.0 mg/kg/injection, schedule: Q01DX001 (ip), vehicle: carboxymethylcellulose (CMC) 100 % of control | endpoint: mean survival time, dose: 200.0 mg/kg/injection, schedule: Q01DX001 (ip), vehicle: carboxymethylcellulose (CMC) 112 % of control | endpoint: mean survival time, dose: 400.0 mg/kg/injection, schedule: Q01DX001 (ip), vehicle: carboxymethylcellulose (CMC) 96 % of control
